The results in this text go back to PubChem BioAssay AID624129 (Sanford-Burnham Center for Chemical Genomics, 2012).

Assay in all cases: potency against CXCR6 with APJ panel – cell-based, beta-arrestin, DiscoveRx, uHTS hits, dose response (AID 624129)
Assay [1] addresses Apelin receptor (Homo sapiens) (UniProt P35414). The following applies: CXCR6 beta-arrestin (DiscoveRx) antagonist cell assay, APJ.
The target in assay [2] is Beta-galactosidase (Escherichia coli) (UniProt Q8VNN2). The following applies: CXCR6 beta-arrestin (DiscoveRx) antagonist cell assay, b-galactosidase.
Beta-galactosidase (Escherichia coli), sequence (Q8VNN2 whole entry, looked up): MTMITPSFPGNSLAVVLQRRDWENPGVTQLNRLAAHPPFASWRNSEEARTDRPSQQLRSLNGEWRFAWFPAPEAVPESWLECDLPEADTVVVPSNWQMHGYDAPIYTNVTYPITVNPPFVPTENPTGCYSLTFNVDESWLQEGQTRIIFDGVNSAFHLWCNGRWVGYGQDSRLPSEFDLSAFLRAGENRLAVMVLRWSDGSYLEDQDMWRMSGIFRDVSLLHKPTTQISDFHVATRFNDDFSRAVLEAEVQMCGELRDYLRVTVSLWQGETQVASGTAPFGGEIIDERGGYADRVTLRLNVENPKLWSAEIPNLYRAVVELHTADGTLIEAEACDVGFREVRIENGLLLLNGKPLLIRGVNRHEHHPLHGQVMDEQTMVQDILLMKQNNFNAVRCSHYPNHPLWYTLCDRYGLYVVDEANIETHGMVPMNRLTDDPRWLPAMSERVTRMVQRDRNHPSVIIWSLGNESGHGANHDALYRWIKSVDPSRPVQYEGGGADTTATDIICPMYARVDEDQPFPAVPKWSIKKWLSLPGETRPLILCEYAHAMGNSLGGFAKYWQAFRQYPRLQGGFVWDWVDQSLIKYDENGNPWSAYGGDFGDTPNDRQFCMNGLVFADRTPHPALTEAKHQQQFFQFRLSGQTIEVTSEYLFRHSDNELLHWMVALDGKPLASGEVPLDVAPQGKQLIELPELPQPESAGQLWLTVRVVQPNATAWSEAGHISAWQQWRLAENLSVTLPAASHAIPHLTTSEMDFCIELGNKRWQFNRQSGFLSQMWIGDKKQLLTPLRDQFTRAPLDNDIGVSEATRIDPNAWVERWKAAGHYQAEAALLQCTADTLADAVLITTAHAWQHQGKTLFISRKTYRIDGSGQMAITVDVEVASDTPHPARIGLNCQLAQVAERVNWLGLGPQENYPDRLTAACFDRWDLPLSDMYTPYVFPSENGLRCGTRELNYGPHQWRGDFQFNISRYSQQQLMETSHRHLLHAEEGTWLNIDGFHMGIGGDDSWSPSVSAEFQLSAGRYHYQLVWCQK
For assay [3], the target named is C-C chemokine receptor type 6 (Homo sapiens) (UniProt P51684). The note with it: CXCR6 beta-arrestin (DiscoveRx) antagonist cell assay.
In assay [4] the target is C-X-C chemokine receptor type 6 (Homo sapiens) (UniProt O00574). The following applies: CXCR6 beta-arrestin (DiscoveRx) antagonist cell assay; for inhibition: CXCR6, run 1, dose range 2, at 80 µM (top of the series).
C-X-C chemokine receptor type 6 (Homo sapiens), sequence (O00574 whole entry, looked up): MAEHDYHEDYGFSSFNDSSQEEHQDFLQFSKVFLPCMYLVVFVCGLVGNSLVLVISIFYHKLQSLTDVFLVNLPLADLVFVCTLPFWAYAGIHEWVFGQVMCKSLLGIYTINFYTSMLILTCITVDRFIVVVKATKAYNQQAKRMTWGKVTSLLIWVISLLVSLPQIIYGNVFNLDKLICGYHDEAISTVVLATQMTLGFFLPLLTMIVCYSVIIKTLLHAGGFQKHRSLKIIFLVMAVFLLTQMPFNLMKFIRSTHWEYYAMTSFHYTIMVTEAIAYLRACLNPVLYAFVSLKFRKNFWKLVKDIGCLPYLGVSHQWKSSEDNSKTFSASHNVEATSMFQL
Setting [5] is: dose range 1, mean IC50 across replicates.
The mark [6] stands for this setting: CCR6, dose range 1, mean IC50 across replicates.
[7] abbreviates: CXCR6, dose range 1, mean IC50 across replicates.

pIC50: −log10 of the molar value. The source made the active and inactive calls. No rule for the calls is given here.

What is called pIC50 is −log10 of the IC50, conventionally taken in molar units. The IC50 is the point on the concentration scale where inhibition reaches its midpoint. Turning to `CC(C)N=C1CCCC1C(=S)SSC(=S)C1CCCC1=NC(C)C` (centres undefined), the pIC50 is 4.86 in assay [1] (dose range 1); 4.63 in assay [1] (setting [5]); 4.66 in assay [1] (run 2, dose range 1); 4.45 in assay [1] (run 3, dose range 1); below 4.10 in assay [2] (setting [5]); 5.04 in assay [3] (CCR6, dose range 1). Also, the pIC50 was 4.99 in assay [3] (setting [6]); 4.94 in assay [3] (CCR6, run 2, dose range 1); 4.94 in assay [4] (setting [7]); 5.39 in assay [4] (CXCR6, run 1, dose range 2); 4.75 in assay [4] (CXCR6, run 2, dose range 1); 5.30 in assay [4] (CXCR6, run 2, dose range 2). In addition, the IC50 in assay [2] (dose range 1) was > 80 µM (inactive). Besides, the IC50 entry in assay [4] (CXCR6, dose range 1) is “inactive”.

For orientation: inhibition means the relative decrease from the control value, in per cent. On to `CCOc1ccc(NCC(=O)c2ccc(C)cc2)cc1`, for which the pIC50 in assay [1] (dose range 1) is 4.68; in assay [1] (setting [5]), 4.61; in assay [1] (run 2, dose range 1), 4.55; in assay [1] (run 3, dose range 1), below 4.10; in assay [2] (setting [5]) it was below 4.10; in assay [3] (CCR6, dose range 1) it was 4.85. Further, the negative logarithm of the IC50 (pIC50) in assay [3] (setting [6]) is 4.79; in assay [3] (CCR6, run 2, dose range 1), 4.74; in assay [4] (setting [7]), 4.68; in assay [4] (CXCR6, run 2, dose range 1) it was below 4.10. Moreover, the IC50 in assay [2] (dose range 1) was > 80 µM (inactive). Moreover, the IC50 result in assay [4] (CXCR6, dose range 1) was “inactive”. Moreover, the inhibition in assay [4] came out at 38.7%.

`O=[N+]([O-])c1ccc(Sc2cccc[n+]2[O-])c2nonc12`: the pIC50 in assay [1] (dose range 1) is 4.67; in assay [1] (setting [5]) it was 4.71; in assay [1] (run 2, dose range 1) it was 4.76; in assay [1] (run 3, dose range 1), 4.70; in assay [2] (setting [5]), below 4.10; in assay [3] (CCR6, dose range 1), 4.94. In addition, the pIC50 in assay [3] (setting [6]) was 4.94; in assay [3] (CCR6, run 2, dose range 1), 4.94; in assay [4] (setting [7]), below 4.10; in assay [4] (CXCR6, run 2, dose range 1), below 4.10. For the same compound, the IC50 in assay [2] (dose range 1) was > 80 µM (inactive); in assay [4] (CXCR6, dose range 1), > 80 µM (inactive). In addition, the inhibition in assay [4] worked out at 118%.

Turning to `COc1ccc([N+](=O)[O-])c(S(=O)(=O)c2ccccc2)n1`, the pIC50 in assay [1] (dose range 1) was 4.67; in assay [1] (setting [5]) it was 4.64; in assay [1] (run 2, dose range 1), below 4.10; in assay [1] (run 3, dose range 1), 4.61; in assay [2] (setting [5]) it was 4.29; in assay [3] (CCR6, dose range 1), 4.65. For the same compound, the pIC50 was 4.71 in assay [3] (setting [6]); 4.78 in assay [3] (CCR6, run 2, dose range 1); 4.45 in assay [4] (setting [7]); 4.60 in assay [4] (CXCR6, run 2, dose range 1). In addition, the IC50 result in assay [2] (dose range 1) was “inactive”; in assay [4] (CXCR6, dose range 1) it was “inactive”. Also, in assay [4], the inhibition amounted to 102%.

On to `CS(=O)(=O)c1ncc(Cl)c(C(=O)Nc2ccc3ccccc3c2)n1`, for which the pIC50 in assay [1] (dose range 1) was 4.21; in assay [1] (setting [5]) it was 4.22; in assay [1] (run 2, dose range 1) it was 4.22; in assay [1] (run 3, dose range 1) it was below 4.10; in assay [2] (setting [5]) it was below 4.10; in assay [3] (setting [6]) it was 4.32. In addition, the pIC50 in assay [3] (CCR6, run 2, dose range 1) is 4.32; in assay [4] (setting [7]) it was below 4.10; in assay [4] (CXCR6, run 2, dose range 1), below 4.10. Moreover, the IC50 in assay [2] (dose range 1) was > 80 µM (inactive); in assay [4] (CXCR6, dose range 1), > 80 µM (inactive). The inhibition in assay [4] was determined as 47.9%.

Regarding `CC(=O)NC(=S)Nc1sc2c(c1C(N)=O)CCC(C)C2` (centres undefined), the pIC50 was below 4.10 in assay [1] (setting [5]); below 4.10 in assay [1] (run 2, dose range 1); below 4.10 in assay [1] (run 3, dose range 1); below 4.10 in assay [2] (setting [5]); below 4.10 in assay [3] (setting [6]); below 4.10 in assay [3] (CCR6, run 2, dose range 1). Moreover, the pIC50 in assay [4] (setting [7]) was below 4.10; in assay [4] (CXCR6, run 2, dose range 1), below 4.10. Moreover, the IC50 was > 80 µM (inactive) in assay [2] (dose range 1) and > 80 µM (inactive) in assay [4] (CXCR6, dose range 1). In addition, the inhibition in assay [4] was -35.8%.

In the case of `COC(=O)c1ccc2c(c1)C(C)(C)C(/C=C/c1ccccc1O)=[N+]2C`, the pIC50 was 4.79 in assay [1] (dose range 1); 4.80 in assay [1] (setting [5]); 4.85 in assay [1] (run 2, dose range 1); 4.76 in assay [1] (run 3, dose range 1); 4.62 in assay [2] (dose range 1); 4.62 in assay [2] (setting [5]). Also, the pIC50 in assay [3] (CCR6, dose range 1) is 4.99; in assay [3] (setting [6]) it was 4.95; in assay [3] (CCR6, run 2, dose range 1), 4.91; in assay [4] (setting [7]) it was 4.93; in assay [4] (CXCR6, run 1, dose range 2), 5.05; in assay [4] (CXCR6, run 2, dose range 1), 4.87. Further, the pIC50 in assay [4] (CXCR6, run 2, dose range 2) is 5.01. In assay [4] (CXCR6, dose range 1), the IC50 entry is “inactive”.

As to `COc1ccc(C(=O)/C(=C\c2ccco2)N2C=CC=CC2=C(C#N)C#N)cc1`, the pIC50 in assay [1] (dose range 1) is 5.20; in assay [1] (setting [5]) it was 5.24; in assay [1] (run 2, dose range 1), 5.30; in assay [1] (run 3, dose range 1), 5.25; in assay [2] (setting [5]) it was below 4.10; in assay [3] (CCR6, dose range 1) it was 5.49. The pIC50 in assay [3] (setting [6]) was 5.43; in assay [3] (CCR6, run 2, dose range 1), 5.38; in assay [4] (CXCR6, dose range 1), 5.32; in assay [4] (setting [7]), 5.31; in assay [4] (CXCR6, run 1, dose range 2) it was 5.34; in assay [4] (CXCR6, run 2, dose range 1), 5.29. Besides, the pIC50 in assay [4] (CXCR6, run 2, dose range 2) was 5.30. The IC50 in assay [2] (dose range 1) is > 80 µM (inactive).
